Data on 1 molecule can be found in article PMC3374801, “Artemisinin Inhibits Chloroplast Electron Transport Activity: Mode of Action” (PLoS ONE, 2012).

The structures appear in SMILES notation. Entries after “also recorded” stand apart in the source; their conditions may differ.

Test [1] has as its system PQH2 pool (PSII catalyzed electron flow from water to DQ). Nature of the test: Kinetics of DQ supported electron transport rate in thylakoids from treated leaves. The conditions noted are these: control versus treated thylakoids. Format: in vivo. On the procedure:
(§1) Twenty one day old rice plants were sprayed with artemisinin twice at a 24 h interval. One mililiter of 74.4 mM artemisinin in 1% (V/V) DMSO, 0.1% (V/V) TWEEN-20 was diluted 100 fold with water and used to treat 40 plants (∼1.86 µmol of artemisinin/plant). Control plants were sprayed with the same solution without artemisinin. The 4th (quaternary) leaf was harvested 20 h after the 2nd spray and used for all experiments. The individual effect of the surfactant and DMSO-plus-surfactant was first evaluated against water control. […]
(§2) Thylakoids were isolated from spinach and rice leaves following with some modifications. […] Chlorophyll concentration in methanolic extract was measured spectrophotometrically.
(§3) Photosystem II, PSI and whole chain (PSII plus PSI) catalyzed electron transport activities were measured as oxygen (O2) evolution or uptake in a Clarke type O2 electrode assembly (Hansatech) at 22±1°C using site-specific artificial electron acceptors, donors, and inhibitors, [26]. […] Phosphorylating electron transport was measured with addition of 1 mM ADP and 5 mM K2HPO4 (iP) to basal electron transport components (25 mM hepes-NaOH (pH-7.5), 100 mM sucrose, 5 mM MgCl2 and 20 µg Chl. ml^−1). […]

A further test addresses T1, PSII (Oryza sativa subsp. japonica, UniProt P0C434).
T1 construct: Thylakoids were isolated from spinach and rice leaves; from tissue; host or cells: thylakoid membranes from the 4th leaf of 21-day-old rice plants
Nature of the test: PSII (H2O to pBQ) catalyzed electron flow in thylakoids isolated from leaves of sprayed plants. It counts as in vivo, Rice (Oryza sativa var. Safari). The note with it: thylakoids of treated rice leaves. The procedure: as §1, §2, §3

The subject of a further test is rice plant. Briefly: Long term effect of artemisinin administration to rice plant. Format: in vivo. The conditions noted are these: 5 consecutive alternate day sprays. The procedure:
Supplementary file pone.0038942.s005.doc: Figure S5 Long term effect of artemisinin administration to rice plant. The plants were treated with artemisinin for 5 consecutive alternate day sprays. […] (DOC) Click here for additional data file.

A further test relates to yeast cells. On the set-up: method as in PMID 16170412. The conditions noted are these: 80 µM; cited from earlier work.
In test [2] the test system is rice leaves. Nature of the test: Fast Chl. a (O-J-I-P) fluorescence transient in leaves of artemisinin sprayed plants. Format: in vivo, Rice (Oryza sativa var. Safari). The procedure:
(§4) Twenty one day old rice plants were sprayed with artemisinin twice at a 24 h interval. One mililiter of 74.4 mM artemisinin in 1% (V/V) DMSO, 0.1% (V/V) TWEEN-20 was diluted 100 fold with water and used to treat 40 plants (∼1.86 µmol of artemisinin/plant). Control plants were sprayed with the same solution without artemisinin. The 4th (quaternary) leaf was harvested 20 h after the 2nd spray and used for all experiments. The individual effect of the surfactant and DMSO-plus-surfactant was first evaluated against water control. Since no effect was obtained with these variations, we have routinely used the DMSO plus the surfactant sprayed leaves as control against artemisinin treated leaves and in figures the same has been depicted as DMSO (control). The room temperature Chl. a fluorescence technique was used to study the photosynthetic activity in intact leaf samples. The fast Chl. a transients (O-J-I-P) in millisecond (ms) time span was studied with plant efficiency analyzer (Handy PEA fluorimeter) following Strasser et al., while the relative thylakoid electron transport, membrane energization and carbon fixation activities were evaluated from slow fluorescence transients, obtained using FMS2 instrument (Hansatech) as per the detail outlined in Baker. The readouts from Handy PEA were analyzed using biolyzerhp3 software.

Test [3] deals with rice leaves. Nature of the test: Slow Chl. a fluorescence kinetics in leaves of artemisinin sprayed plants. Format: in vivo, Rice (Oryza sativa var. Safari). The note with it: dark adapted 20 min. On the procedure: as §4
A further test has as its system Chl. pigment synthesis. Nature of the test: Chlorophyll quantification in sprayed plants. It counts as in vivo, Rice (Oryza sativa var. Safari). The note with it: treated versus control leaves. On the procedure: Twenty one day old rice plants were sprayed with artemisinin twice at a 24 h interval. One mililiter of 74.4 mM artemisinin in 1% (V/V) DMSO, 0.1% (V/V) TWEEN-20 was diluted 100 fold with water and used to treat 40 plants (∼1.86 µmol of artemisinin/plant). Control plants were sprayed with the same solution without artemisinin. The 4th (quaternary) leaf was harvested 20 h after the 2nd spray and used for all experiments. The individual effect of the surfactant and DMSO-plus-surfactant was first evaluated against water control. Since no effect was obtained with these variations, we have routinely used the DMSO plus the surfactant sprayed leaves as control against artemisinin treated leaves and in figures the same has been depicted as DMSO (control). Thylakoids were isolated from spinach and rice leaves following with some modifications. Leaves were homogenized in cold grinding buffer [50 mM tricine-NaOH (pH 7.5), 400 mM sucrose, 5 mM MgCl2 and 5 mM KCl]. The homogenate was filtered through Miracloth and the filtrate was centrifuged at 5000×g for 5 min. […] Chlorophyll concentration in methanolic extract was measured spectrophotometrically. Supplementary file pone.0038942.s002.doc: Figure S2 Chlorophyll quantification in plants sprayed with DMSO and artemisinin. […]

Test [4] has as its system whole chain (H2O to FeCN) electron flow in thylakoids. Briefly: Whole chain (H2O to FeCN) electron flow in thylakoids isolated from leaves of sprayed plants. Format: in vivo, Rice (Oryza sativa var. Safari). On the procedure: as §1, §2, §3
Test [5] has as its system lettuce, redroot pigweed, pitted morning glory, annual wormwood and common purslane. Further details: method as in earlier work. The note with it: 33 µM; cited from earlier work.
For another test, the system named is PSI. Nature of the test: PSI (DCIPH2 to MV) catalyzed electron flow in thylakoids isolated from leaves of sprayed plants. It counts as in vivo, Rice (Oryza sativa var. Safari). The note with it: thylakoids of treated rice leaves. On the procedure:
as §1, §2, §3

A further test concerns spinach thylakoids. Nature of the test: In vitro effect of artemisinin on FeCN supported O2 evolution (electron transport) of isolated thylakoids. Format: biochemical, spinach (Beta palonga). The conditions noted are these: for artemisinin-mediated inhibition of electron transport: 744 µM. The procedure:
Thylakoids were isolated from spinach and rice leaves following with some modifications. Leaves were homogenized in cold grinding buffer [50 mM tricine-NaOH (pH 7.5), 400 mM sucrose, 5 mM MgCl2 and 5 mM KCl]. The homogenate was filtered through Miracloth and the filtrate was centrifuged at 5000×g for 5 min. The chloroplast pellet was washed in 5 mM tricine-NaOH (pH 7.5) buffer containing, 400 mM sucrose and 2 mM MgCl2 and centrifuged at 300×g for 1 min. The supernatant was re-centrifuged at 5000×g for 5 min. The pellet (thylakoids) was finally taken up in a minimal volume of suspending buffer [20 mM tricine-NaOH (pH 7.5), 100 mM sucrose and 5 mM MgCl2]. Chlorophyll concentration in methanolic extract was measured spectrophotometrically.
Photosystem II, PSI and whole chain (PSII plus PSI) catalyzed electron transport activities were measured as oxygen (O2) evolution or uptake in a Clarke type O2 electrode assembly (Hansatech) at 22±1°C using site-specific artificial electron acceptors, donors, and inhibitors, [26]. The light was rate-saturating (500 µE m^−2 s^−1). Phosphorylating electron transport was measured with addition of 1 mM ADP and 5 mM K2HPO4 (iP) to basal electron transport components (25 mM hepes-NaOH (pH-7.5), 100 mM sucrose, 5 mM MgCl2 and 20 µg Chl. ml^−1). NH4Cl and GS were used at a final concentration of 5 mM and 10 µM respectively as and when required. The whole chain electron flow was assayed in presence of 2 mM FeCN as terminal electron acceptor of PSI. pBQ and DQ (400 µM) were used to measure PSII catalyzed electron flow. To measure PSI catalyzed electron flow, DCIPH2 (1 mM DCIP plus 2 mM ascorbate) was used as electron donor to cytochrome b6/f region and 1 mM MV as transient electron acceptor. The PSI reaction mixture additionally contained 2 mM sodium azide (catalase inhibitor) and 10 µM DCMU (PSII inhibitor).

Test [6] relates to lettuce and annual wormwood. Further details: method as in earlier work. The conditions noted are these: 33 µM; cited from earlier work.

`C[C@@H]1CC[C@H]2[C@@H](C)C(=O)O[C@@H]3O[C@@]4(C)CC[C@@H]1[C@]32OO4` [Artemisinin]: the “DQ supported electron transport rate, times higher in the absence of artemisinin” value in [1] was 5 times. The “reduction in rate of pBQ supported PSII catalyzed electron transport” value at PSII was 65–70%. For the same molecule, the “long term effect on plants” value in the test with rice plant is on record as “death of plant; also recorded: complete death of the plants”. Moreover, in the test on yeast cells, the “effect on growth of yeast cells” value was “arrests the growth”. Further, the “effect on electron flow from water to QA” value with rice leaves [2] (from DCMU (20 µM) sensitivity of the fluorescence induction curves) is “insensitive”. In addition, in the test on rice leaves [2] (leaves of sprayed rice plants), the “effect on O-J-I-P fluorescence transient” value is on record as “disappearance of the FI – FP transient”. Further, in the test on rice leaves [3], the “Rfd (fluorescence decline ratio from 'p' to 't' level)” value stood at 0.08±0.006. Also, the “effect on Chl. pigment synthesis (Chl. concentration)” value in the test on Chl. pigment synthesis is “no affect on the Chl. pigment synthesis”. In addition, the “reduction of FeCN supported whole chain electron transport rate as compared to control” value in test [4] (thylakoids of treated rice leaves (~1.86 µmol/plant)) is recorded as 80–85%. Further, the “inhibitory affect in loosely coupled (basal) versus chemically uncoupled (NH4Cl or GS) thylakoids” value in [4] (thylakoids of treated rice leaves, FeCN as acceptor) was “persistent to a comparable extent”. The “effect on growth of roots and shoots” value in [5] is “inhibited”. For the same molecule, in the test with PSI, the “reduction of PSI catalyzed electron flow from DCIPH2 to MV as compared to control” value is listed as 10–15%. For the same molecule, in the test with spinach thylakoids (744 µM artemisinin, basal (loosely coupled) thylakoids, relative to DMSO control), the “inhibition of control activity (FeCN supported electron transport / O2 evolution)” value is 65–70%. Besides, the “artemisinin-mediated inhibition of electron transport” value is listed as 45–50% in the test on spinach thylakoids (phosphorylating condition (plus ADP and iP)); 15–20% in the test with spinach thylakoids (phosphorylating condition, in presence of NH4Cl); 20–25% in the test with spinach thylakoids (phosphorylating condition, with GS). The effect on germination entry in test [6] was “inhibited the germination”.
